Reference: patent publication US20200261440A1, “ZINC IONOPHORES AND USES THEREOF” (THE UNIVERSITY OF QUEENSLAND, priority 2017, published 2020)
Read-outs that look alike come from different tables or passages of the source. Marks after values point to notes of the source that are not given here.

How the values were obtained:
[1] = tested on: Methicillin-resistant Staphylococcus aureus (MRSA) strain USA300; test: MIC by broth microdilution (CLSI)
Description: GAS HKU16, MRSA USA300, VRE RBWH1, Klebsiella pneumoniae strain MS6771, E. coli strain MS8345 and Streptococcus pneumoniae strain 23F were grown in Todd-Hewitt broth (THB) or agar with 1% yeast extract (THY) [Todd, E. W. & Hewitt, L. F. A new culture medium for the production of antigenic streptococcal haemolysin. […] Bacteria were routinely grown at 37° C. in ambient air.
MICs were determined by broth microdilution in accordance to CLSI guidelines (“Methods for Dilution Antimicrobial Susceptibility Tests for Bacteria That Grow Aerobically”, Clinical and Laboratory Standards Institute) [Clinical and Laboratory Standards Institute. […] For MRSA, VRE, Klebsiella pneumoniae and E. coli the assays were performed in MHB, and for GAS and Streptococcus pneumoniae MHB+2.5% lysed horse blood (LHB) was used. The bacterial inoculum was prepared by direct colony suspension aiming for 2-8×10^5 colony forming units (CFU)/mL bacteria per well. Antibiotics/compounds were serially diluted two-fold across the 96-well plate, the last column contained no antibiotics/compounds. The inoculum was added to the plate containing antibiotic/compound and incubated for 16-24 h at 35+/−2° C. […] MIC assays were carried out in biological triplicates.
Using Clinical and Laboratory Standards Institute guidelines for antimicrobial sensitivity testing [Clinical and Laboratory Standards Institute.

[2] = tested on: Klebsiella pneumoniae strain MS6771; test: MIC by broth microdilution (CLSI); type: cell-based
[3] = tested on: P. aeruginosa strain 253-43-C; test: MIC by broth microdilution (CLSI); type: cell-based, Pseudomonas aeruginosa
Description: They were obtained from Jan Bell, Australian Centre of Microbial Resistance Ecology (ACARE), University of Adelaide, Australia.
(§1) (2017)]. […] MIC assays were carried out in biological triplicates.

[4] = tested on: Vancomycin-resistant Enterococci (VRE) clinical isolate RBWH1; test: MIC by broth microdilution (CLSI); type: cell-based, Enterococcus; settings: for antibiotic sensitivity of resistant strain: addition of sub-inhibitory PBT2+zinc(II) ions
Description: (§2) J. Path. Bact. […] Proc. Soc.
(§3) MIC assays were carried out in biological triplicates.
(§4) M100 Performance Standards for Antimicrobial Susceptibility Testing, 27th Edition.

[5] = tested on: GAS strain HKU16 (Streptococcus pyogenes strain HKU16); test: microbe, parasite or virus in culture; type: cell-based
Description: as §2, §3, §4

[6] = tested on: MCR-1 E. coli strain MS8345; test: MIC by broth microdilution (CLSI); type: cell-based, Escherichia coli; settings: for antibiotic sensitivity of resistant strain: MCR1-positive E. coli MS8345; for MIC: MCR-1 E. coli
Description: as §2
J Infect Dis. 1995 171:890-6). E. coli strain MS8345 is a MCR-1 resistant clinical isolate supplied by Prof. D. L. Paterson, University of Queensland Centre for Clinical Research.
as §1

GAS = test: Drop test assay, growth on THY agar; type: cell-based, Streptococcus pyogenes; settings: PBT2 (1.5 μM), zinc(II) ions (400 μM)
Description: (§5) FIG. 1a illustrates growth of GAS, MRSA and VRE on THY agar in the presence or absence of PBT2 (1.5 μM) and zinc(II) ions (400 μM).
(§6) Bacteria were diluted from overnight cultures to get a starting OD600 of 0.01 in THY. Once the bacteria grew to an OD600 of 0.6, the culture were serially diluted in PBS and 5 μL of each dilution (undiluted, 10^−1, 10^−2, 10^−3, 10^−4, 10^−5) was plated on THY agar plates with or without zinc (400 μM) and/or PBT2 ([…]). Plates were incubated at 37° C. overnight. Drop tests were undertaken in biological triplicates.

VRE [7] = test: Drop test assay, growth on THY agar; type: cell-based, Enterococcus; settings: PBT2 (1.5 μM), zinc(II) ions (400 μM)
Description: as §5, §6

MRSA = test: Drop test assay, growth on THY agar; type: cell-based, Staphylococcus aureus; settings: PBT2 (1.5 μM), zinc(II) ions (400 μM)
Description: as §5, §6

[8] = humans; up to 250 mg/day (oral) for 12 weeks; cited from earlier work
VRE [9] = test: Murine wound infection model; type: in vivo, BALB/c mice; settings: 4 days
Description: For wound infection, 4-7 week old female BALB/c mice were used and housed in individual cages [Pandey, M. et al. A synthetic M protein peptide synergizes with a CXC chemokine protease to induce vaccine-mediated protection against virulent streptococcal pyoderma and bacteremia. J Immunol 194, 5915-5925, doi:10.4049/jimmunol.1500157 (2015)]. The neck area of the mice was shaved and residual hair removed using Nair (Church & Dwight) prior to the experiment. On the day of infection, mice were anesthetized by inhalation of methoxyflurane and a small superficial scarification was made on the shaved skin using a metal file. For infection, 5×10^6-2×10^7 CFU GAS or 5×10^5-2×10^6 CFU MRSA/VRE were applied onto the scarified skin. […] Mice were treated with ointment twice daily and a total of 9 treatments were applied. […] […] After four days treatment, the mice were euthanized, the scarified skin was excised, and washed twice in PBS by vortexing for 30 seconds. […] Each treatment group contained six mice and statistical significance was calculated using an unpaired t-test (non-parametric).

[10] = MRSA, RA-HQ-12: 3.5 μM, Zn: […], oxacillin with 2% NaCl
[11] = MRSA, RA-HQ-12: 3.5 μM, oxacillin with 2% NaCl
[12] = K. pneumoniae, RA-HQ-12: 16 μM, Zn: 64 μM

## polymyxin B
[1]; MRSA USA300, CQ: 1 μM
  MIC: 64 µg/mL
[1]; MRSA USA300, CQ: 1 μM, Zinc: 32 μM
  MIC: 2 µg/mL
[1]; MRSA USA300, PBT2: 0 μM, Zinc: 0 μM
  MIC: 64 µg/mL
[1]; MRSA USA300, PBT2: 2 μM
  MIC: 64 µg/mL
[1]; MRSA USA300, PBT2: 2 μM, Zinc: 50 μM
  MIC: 2 µg/mL
[1]; MRSA USA 300, RA-HQ-12+zinc(II) ions (ZnSO4)
  antibiotic resensitization: resensitize
[1]; MRSA USA300, Zinc: 50 μM
  MIC: 64 µg/mL
[1]; MRSA USA300, addition of sub-inhibitory PBT2+zinc(II) ions
  antibiotic sensitivity of resistant strain: became sensitive
[1]; [10]
  MIC: 4^# μg/mL
[1]; [11]
  MIC: 32 µg/mL
[2]; [12]
  MIC: 4^# μg/mL
[2]; Klebsiella pneumoniae MS6771, RA-HQ-12+zinc(II) ions (ZnSO4)
  antibiotic resensitization: resensitize
[2]; Klebsiella pneumoniae MS6771, addition of sub-inhibitory PBT2+zinc(II) ions
  antibiotic sensitivity of resistant strain: became sensitive
[2]; Klebsiella pneumoniae MS6771, combination with PBT2, no zinc
  antibiotic sensitivity of resistant strain: resulted in sensitivity
[2]; Klebsiella pneumoniae, CQ: 0 μM, Zinc: 0 μM
  MIC: 64 µg/mL
[2]; Klebsiella pneumoniae, CQ: 64 μM
  MIC: 2 µg/mL
[2]; Klebsiella pneumoniae, CQ: 64 μM, Zinc: 256 μM
  MIC: 2 µg/mL
[2]; Klebsiella pneumoniae, PBT2: 0 μM, Zinc: 0 μM
  MIC: 32 to 64 µg/mL
[2]; Klebsiella pneumoniae, Zinc: 256 μM (CQ panel)
  MIC: 32 to 64 µg/mL
[2]; Klebsiella pneumoniae, Zinc: 256 μM (PBT2 panel)
  MIC: 32 to 64 µg/mL
[3]; PBT2
  MIC: 1 µg/mL
[3]; Untreated
  MIC: 8 µg/mL
[4]; VRE RBWH1, CQ: 2.5 μM
  MIC: 64 µg/mL
[4]; VRE RBWH1, CQ: 2.5 μM, Zinc: 32 μM
  MIC: 0.5 to 1 µg/mL
[4]; VRE RBWH1, PBT2: 1.75 μM
  MIC: 64 µg/mL
[4]; VRE RBWH1, PBT2: 1.75 μM, Zinc: […]
  MIC: 0.5 µg/mL
[4]; VRE RBWH1, RA-HQ-12+zinc(II) ions (ZnSO4)
  antibiotic resensitization: resensitize
[4]; VRE RBWH1
  antibiotic sensitivity of resistant strain: became sensitive
[4]; VRE, RA-HQ-12: 3.5 μM
  MIC: 16 µg/mL
[4]; VRE, RA-HQ-12: 3.5 μM, Zn: […]
  MIC: 4^# μg/mL
[5]; GAS HKU16, RA-HQ-12+zinc(II) ions (ZnSO4)
  antibiotic resensitization: resensitize
[5]; GAS HKU16, addition of sub-inhibitory PBT2+zinc(II) ions
  antibiotic sensitivity of resistant strain: became sensitive
[5]; GAS, RA-HQ-12: 3.5 μM, Zn: […]
  MIC: 4^# μg/mL
[5]; Streptococcus pyogenes HKU16, CQ: 0 μM, Zinc: 0 μM
  MIC: 64 µg/mL
[5]; Streptococcus pyogenes HKU16, CQ: 6 μM
  MIC: 32 µg/mL
[5]; Streptococcus pyogenes HKU16, CQ: 6 μM, Zinc: 80 μM
  MIC: 1 µg/mL
[5]; Streptococcus pyogenes HKU16, PBT2: 0 μM, Zinc: 0 μM
  MIC: 64 to 128 µg/mL
[5]; Streptococcus pyogenes HKU16, PBT2: 4.75 μM
  MIC: 32 µg/mL
[5]; Streptococcus pyogenes HKU16, PBT2: 4.75 μM, Zinc: […]
  MIC: 1 to 2 µg/mL
[5]; Streptococcus pyogenes HKU16, Zinc: 80 μM
  MIC: 64 µg/mL
[5]; Streptococcus pyogenes HKU16, Zinc: […] (PBT2 panel)
  MIC: 64 µg/mL
[6]; addition of sub-inhibitory PBT2+zinc(II) ions
  antibiotic sensitivity of resistant strain: became sensitive
[6]; combination with PBT2, no zinc
  antibiotic sensitivity of resistant strain: resulted in sensitivity
[6]; CQ: 0 μM, Zinc: 0 μM
  MIC: 8 µg/mL
[6]; CQ: 5 μM
  MIC: 2 to 4 µg/mL
[6]; CQ: 5 μM, Zinc: 25 μM
  MIC: 1 µg/mL
[6]; PBT2: 0 μM, Zinc: 0 μM
  MIC: 8 µg/mL
[6]; PBT2: 7 μM
  MIC: 1 µg/mL
[6]; PBT2: 7 μM, Zinc: 200 μM
  MIC: 0.5 µg/mL
[6]; Zinc: 25 μM
  MIC: 8 µg/mL
[6]; Zinc: 200 μM
  MIC: 8 µg/mL

## [Zn+2] [Zinc(II) ion]
GAS
  antibacterial activity: neither PBT2 nor zinc(II) ions (in the form of zinc chloride) displayed antibacterial activity
[1]; MRSA USA300, substance alone
  MIC: 3 mM
[4]; VRE RBWH1, substance alone
  MIC: 3 mM
VRE [7]
  antibacterial activity: neither PBT2 nor zinc(II) ions (in the form of zinc chloride) displayed antibacterial activity
[5]; GAS HKU 16, substance alone
  MIC: 2 mM
MRSA
  antibacterial activity: neither PBT2 nor zinc(II) ions (in the form of zinc chloride) displayed antibacterial activity

## CN(C)Cc1ccc2c(Cl)cc(Cl)c(O)c2n1 [PBT2, 5,7-dichloro-2-[(dimethylamino)methyl]-8-quinolinol]
GAS
  antibacterial activity: neither PBT2 nor zinc(II) ions (in the form of zinc chloride) displayed antibacterial activity
[1]; Staphylococcus aureus, MRSA USA300, substance alone
  MIC: 0.00375 mM
[4]; Enterococcus, VRE RBWH1, substance alone, read-out: MIC
  MIC: 0.0019 mM
VRE [7]
  antibacterial activity: neither PBT2 nor zinc(II) ions (in the form of zinc chloride) displayed antibacterial activity
[5]; Streptococcus pyogenes, GAS HKU 16, substance alone, read-out: MIC
  MIC: > 0.03 mM
MRSA
  antibacterial activity: neither PBT2 nor zinc(II) ions (in the form of zinc chloride) displayed antibacterial activity
[8]
  safety and tolerability: safe and well tolerated

## CN[C@H](CC(C)C)C(=O)N[C@H]1C(=O)N[C@@H](CC(N)=O)C(=O)N[C@H]2C(=O)N[C@H]3C(=O)N[C@H](C(=O)N[C@H](C(=O)O)c4cc(O)cc(O)c4-c4cc3ccc4O)[C@H](O)c3ccc(c(Cl)c3)Oc3cc2cc(c3O[C@@H]2O[C@H](CO)[C@@H](O)[C@H](O)[C@H]2O[C@H]2C[C@](C)(N)[C@H](O)[C@H](C)O2)Oc2ccc(cc2Cl)[C@H]1O [Vancomycin, vancomycin]
[1]; [10]
  MIC: 1 µg/mL
[1]; [11]
  MIC: 1 µg/mL
[1]; Staphylococcus aureus
  MIC: 1 µg/mL
[2]; K. pneumoniae, RA-HQ-12: 16 μM
  MIC: >128 µg/mL
[2]; [12]
  MIC: >128 µg/mL
[2]; K. pneumoniae, Zn: 64 μM
  MIC: >128 µg/mL
[2]; Klebsiella pneumoniae, MS6771
  MIC: > 128 µg/mL
[4]; Enterococcus, VRE, VRE RBWH1, CQ: 0 μM, Zinc: 0 μM
  MIC: > 128 µg/mL
[4]; Enterococcus, VRE, VRE RBWH1, CQ: 2.5 μM
  MIC: > 128 µg/mL
[4]; Enterococcus, VRE, VRE RBWH1, CQ: 2.5 μM, Zinc: 32 μM
  MIC: 1 µg/mL
[4]; Enterococcus, VRE, VRE RBWH1, PBT2: 0 μM, Zinc: 0 μM
  MIC: > 128 µg/mL
[4]; Enterococcus, VRE, VRE RBWH1, PBT2: 1.75 μM
  MIC: > 128 µg/mL
[4]; Enterococcus, VRE, VRE RBWH1, PBT2: 1.75 μM, Zinc: […]
  MIC: 1 to 2 µg/mL
[4]; Enterococcus, VRE, VRE RBWH1, Zinc: 32 μM
  MIC: > 128 µg/mL
[4]; Enterococcus, VRE, VRE RBWH1, Zinc: […] (PBT2 panel)
  MIC: > 128 µg/mL
[4]; Enterococcus, VRE, RA-HQ-12: 0 μM, Zn: 0 μM
  MIC: > 128 µg/mL
[4]; Enterococcus, VRE, RA-HQ-12: 3.5 μM
  MIC: > 128 µg/mL
[4]; Enterococcus, VRE, RA-HQ-12: 3.5 μM, Zn: […]
  MIC: > 128 µg/mL
[4]; Enterococcus, VRE, Zn: […] (RA-HQ-12 panel)
  MIC: > 128 µg/mL
[4]; VRE RBWH1
  antibiotic sensitivity of resistant strain: became sensitive
[5]; Streptococcus pyogenes, GAS, RA-HQ-12: 3.5 μM
  MIC: 0.5 µg/mL
[5]; Streptococcus pyogenes, GAS, RA-HQ-12: 3.5 μM, Zn: […]
  MIC: 0.25 µg/mL
[5]; Streptococcus pyogenes, GAS, Zn: […] (RA-HQ-12 panel)
  MIC: 0.5 µg/mL
[5]; Streptococcus pyogenes, GAS, RA-HQ-12: 0 μM, Zn: 0 μM
  MIC: 0.5 µg/mL
VRE [9]; 1.5% vancomycin in combination with 2 mM PBT2 + 25 mM ZnSO4, ointment twice daily
  bacterial burden at the site of infection (CFUs): significantly reducing infection
VRE [9]; treatment alone: 2 mM PBT2 + 25 mM ZnSO4, or 1.5% vancomycin, ointment twice daily
  bacterial burden at the site of infection (CFUs): Neither antibiotic nor sub-inhibitory concentrations of PBT2+zinc(II) ions alone reduced bacterial burden
